# In patent publication US20210391038A1, “SPECIFICALLY-SHAPED CRYSTAL OF COMPOUND AND METHOD FOR PRODUCING SAME” (TOWA PHARMACEUTICAL CO., LTD., priority 2018, published 2021):
# Counter-ions that a name gives are not always drawn. Like-named read-outs stand apart in the source and are kept apart here.
# Legend:
# Assay type in all cases: physicochemical
# [1] = Sphericity from SEM images (ImageJ); design: key: 1 = true sphere; closer to 1 = more spherical; mean of ≥5 particles
# Text: In the present description, “spherulite” means a crystal aggregate (polycrystal) which has a radial or concentric thin layered structure and has a spherical outer shape. Whether the crystal obtained by the method of the present invention is a spherulite or not can be determined, for example, by observing the outer shape of the crystal using SEM. For example, it can be discriminated by cutting the crystal aggregate and observing the internal structure thereof using SEM. The sphericity of the spherulite obtained by the method of the present invention is usually 0.60 or more, preferably 0.70 or more, more preferably 0.80 or more, particularly preferably 0.90 or more, and most preferably 0.95 or more. The sphericity can be calculated by the following method.
# When an image of particles taken by SEM is analyzed using image processing software ImageJ, a coordinate group representing the position of pixels forming the outline of a particle is obtained. The length of the coordinate group is defined as N, and one pixel coordinate of each outline is defined as p[i] (1≤i≤N). The angle between a straight line l(k) connecting two points p[k] and p[k+N/D] and a straight line m(k) connecting two points p[k+N/D] and p[k+2N/D] is defined as θ(k) (−180°<θ<180°) (1≤k≤N, 1≤D≤N). D corresponds to the number of partitions of the outline. When N/D is not a natural number, the value is defined as the quotient obtained by dividing N by D. By calculating this angle with k=1 to N, N pieces of θ value can be obtained.
# When the particle is a true sphere, θ(k) is 360/D, and the closer the particle is to a true sphere, the closer θ(k) is to this value. The error between θ(k) and the true value 360/D is evaluated by the root-mean-square error (RMSE) of the following formula:
# Using the RMSE value of when D is 10 (θ(k)=36°), the sphericity is defined by the following formula: […]
# The sphericity is 1 in a true sphere, and the closer the particle is to a true sphere, the closer the sphericity is to 1. Meanwhile, the sphericity of an ellipse whose long axis is infinitely long is zero. The sphericity is measured for five or more particles to calculate the mean. This mean is defined as the sphericity of each sample (see FIGS. 42 and 43).
# [2] = Particle size distribution (d50, sharpness index); design: key to sharpness index of the crystal thus obtained / sharpness index of the fine powders: calculated by formula from d10, d50, d90; 1.0 = most uniform particle size; details: for d50: samples of filtration test (Table 7)
# Text: d10 in the present description is a value obtained from a particle size distribution analyzer, and represents a particle size of a particle corresponding to 10% of accumulation from the smaller particle side in the particle size distribution based on the volume.
# d50 in the present description is a value obtained from a particle size distribution analyzer, and represents a particle size of a particle corresponding to 50% of accumulation from the smaller particle side in the particle size distribution based on the volume.
# “Sharpness index” in the present description is an index representing the uniformity of a particle size of a particle in a powder, and a sharpness index of 1.0 represents a powder having the most uniform particle size. The closer the sharpness index is to 1.0, the more the particle size of the powder is uniform. Specifically, the sharpness index represents a value calculated using the following formula from the values of d10, d50, and d90 measured by a particle size distribution analyzer:
# Images for measuring the number of particles were obtained by a scanner GT-X830 manufactured by SEIKO EPSON CORPORATION. The powder X-ray diffraction (XRD) was measured using a desktop X-ray diffraction device MiniFlex300 manufactured by Rigaku Corporation. […] The particle strength was measured using a particle hardness measuring device NEW GRANO manufactured by OKADA SEIKO CO., LTD. […] The purity of a compound was measured by a high performance liquid chromatograph (LC-20A) manufactured by Shimadzu Corporation.
# [3] = Particle density, true density and particle packing rate; details: trihydrate; for Particle packing rate: particle density / true density x 100
# Method: “Particle density” in the present description is mass per unit volume when the volume of the substance itself as well as the volume of the open void and the closed void are included as the volume of polycrystalline particles. For example, when the polycrystalline particles are spherical particles, the particle density is calculated by the following formula using the mean mass of the polycrystalline particles and the mean volume of the polycrystalline particles:
# Here, the mean mass of polycrystalline particles is calculated by measuring the number of polycrystalline particles contained in 1.0 mg or more, preferably 5.0 mg or more, and more preferably 10.0 mg or more of a sample by a scanner, etc. The mean volume of crystal particles is obtained by averaging the volume calculated by photographing 500 or more, preferably 1,000 or more, and more preferably 5,000 or more crystal particles by a light microscope, etc., using an equivalent circle diameter obtained from the projected area of polycrystalline particles, and assuming that the polycrystalline particles are true spheres. At this time, it is desirable that the distribution of the equivalent circle diameter is unimodal and the sharpness value is less than 1.5.
# “Particle packing rate” of a polycrystal in the present description is a value calculated by the following formula:
# Particle packing rate (%)=(particle density)/(true density of compound)×100 [Equation 8]
# Here, “true density of compound” is a density of a substance itself not including a void. If no void exists at all inside or on the surface of a particle, the particle packing rate is 100%. The true density of a compound can be obtained by dry density measurement by the constant volume expansion method. Examples of the measuring device include a dry automatic densimeter AccuPyc II 1340-10CC manufactured by Shimadzu Corporation.
# The particle size distribution was measured in a dry manner using a spray particle size distribution analyzer AEROTRAC LDSA-SPR3500A manufactured by Microtrac Inc. The particle size distribution in Examples 2 and 7 was measured in a dry manner using a laser diffraction particle size distribution measurement MASTERSIZER 3000 manufactured by Malvern Panalytical Ltd. SEM images were measured using a scanning electron microscope JSM-IT100 manufactured by JEOL Ltd. Light microscope images were measured using an upright microscope BX53M manufactured by Olympus Corporation and a microscope digital camera DP74 manufactured by Olympus Corporation. Images for measuring the number of particles were obtained by a scanner GT-X830 manufactured by SEIKO EPSON CORPORATION. The powder X-ray diffraction (XRD) was measured using a desktop X-ray diffraction device MiniFlex300 manufactured by Rigaku Corporation. The specific surface area was measured by the BET fluid process (gas used: pure nitrogen) using a fully automatic specific surface area measuring device Macsorb HM-1208 manufactured by Mountech Co., Ltd. The moisture content was measured using a trace moisture measuring device AQ-2200 manufactured by […] SANGYO Co., Ltd. The dissolution profile was measured using μDISS Profiler manufactured by Pion Inc. Centrifugal classification was performed using a high-efficiency precision forced air classifier Lab Calssiel N-01 manufactured by SEISHIN […] Co., Ltd. Image analysis was performed using image processing software ImageJ developed by the National Institute of Health (NIH). The particle strength was measured using a particle hardness measuring device NEW GRANO manufactured by OKADA SEIKO CO., LTD. The true density was measured using a dry automatic densimeter AccuPyc II 1340-10CC manufactured by Shimadzu Corporation. The purity of a compound was measured by a high performance liquid chromatograph (LC-20A) manufactured by Shimadzu Corporation. […]
# [4] = SEM image analysis, mean of particles
# [5] = dry particle size distribution, volume based
# [6] = SEM image analysis, mean of particles, trihydrate
# [7] = calculated from d10, d50, d90, trihydrate
# [8] = dry particle size distribution, volume based, trihydrate
Compound,"sphericity of the spherulite [1, 4]","sharpness index of the crystal thus obtained ([2]; calculated from d10, d50, d90)","d50 of the crystal thus obtained [2, 5] [μm]","sphericity of the spherulite [1, 6]","sharpness index of the crystal thus obtained [2, 7]","d50 of the crystal thus obtained [2, 8] [μm]",other results
"COC(=O)[C@H](c1ccccc1Cl)N1CCc2sccc2C1 [Example 16, clopidogrel sulfate]",0.96±0.02,1.7,133,,,,
"COc1ccc2[n-]c([S@@+]([O-])Cc3ncc(C)c(OC)c3C)nc2c1.COc1ccc2[n-]c([S@@+]([O-])Cc3ncc(C)c(OC)c3C)nc2c1.O.O.O.[Mg+2] [Example 10(2), esomeprazole magnesium trihydrate]",,,,0.80±0.05,1.48,9.6,"sphericity of the non-spherulite ([1]; non-spherulite crystals, trihydrate): 0.50±0.06; d50 ([2]; trihydrate): 9.6 μm"
"CN(C)CCC[C@@]1(c2ccc(F)cc2)OCc2cc(C#N)ccc21 [Example 19, escitalopram oxalate]",0.98±0.01,4.87,50.7,,,,
"O.O.O.O.O.O.O.O.O=C([O-])[O-].O=C([O-])[O-].O=C([O-])[O-].[La+3].[La+3] [Example 17, lanthanum carbonate octahydrate]",,,,,,,sphericity of the spherulite [1]: 0.69±0.08; d50 of the crystal thus obtained [2]: 105 μm; sharpness index of the crystal thus obtained [2]: 1.4
"COc1ccc2[n-]c([S@@+]([O-])Cc3ncc(C)c(OC)c3C)nc2c1.COc1ccc2[n-]c([S@@+]([O-])Cc3ncc(C)c(OC)c3C)nc2c1.O.O.O.[Mg+2] [Example 10(1), esomeprazole magnesium trihydrate]",,,,0.97±0.01,1.51,39.9,d50 ([2]; trihydrate): 39.9 μm
"COc1ccc2[n-]c([S@@+]([O-])Cc3ncc(C)c(OC)c3C)nc2c1.COc1ccc2[n-]c([S@@+]([O-])Cc3ncc(C)c(OC)c3C)nc2c1.O.O.O.[Mg+2] [Sample 3, esomeprazole magnesium trihydrate]",,,,,,,Particle packing rate [3]: 88%; Particle density [3]: 1.21 g/mL
"COc1ccc2[n-]c([S@@+]([O-])Cc3ncc(C)c(OC)c3C)nc2c1.COc1ccc2[n-]c([S@@+]([O-])Cc3ncc(C)c(OC)c3C)nc2c1.O.O.O.[Mg+2] [Sample 2, esomeprazole magnesium trihydrate]",,,,,,,Particle packing rate [3]: 64%; Particle density [3]: 0.87 g/mL
"COc1ccc2[n-]c([S@@+]([O-])Cc3ncc(C)c(OC)c3C)nc2c1.COc1ccc2[n-]c([S@@+]([O-])Cc3ncc(C)c(OC)c3C)nc2c1.O.O.O.[Mg+2] [Example 7, esomeprazole magnesium trihydrate]",,,,0.97±0.01,1.40,189,
"CC[C@H]1OC(=O)[C@H](C)[C@@H](O[C@H]2C[C@@](C)(OC)[C@@H](O)[C@H](C)O2)[C@H](C)[C@@H](O[C@@H]2O[C@H](C)C[C@H](N(C)C)[C@H]2O)[C@](C)(OC)C[C@@H](C)C(=O)[C@H](C)[C@@H](O)[C@]1(C)O [Example 13, clarithromycin]",0.87±0.08,4.6,16,,,,
"Nc1nc(CC(=O)Nc2ccc(CCNC[C@H](O)c3ccccc3)cc2)cs1 [Example 27, mirabegron]",0.98±0.01,1.66,148,,,,
"COc1ccc2[n-]c([S@@+]([O-])Cc3ncc(C)c(OC)c3C)nc2c1.COc1ccc2[n-]c([S@@+]([O-])Cc3ncc(C)c(OC)c3C)nc2c1.O.O.O.[Mg+2] [Example 2, esomeprazole magnesium trihydrate]",,,,0.95±0.03,2.5,56.1,"sharpness index of the fine powders ([2]; after centrifugal classification and sieving): 1.3; d50 of the fine powders ([2]; after centrifugal classification and sieving (on 390 M, 38 μm)): 54.6 μm"
"CNCC[C@H](Oc1cccc2ccccc12)c1cccs1 [Example 15, duloxetine hydrochloride]",,,,,,,sphericity of the spherulite [1]: 0.92±0.07; d50 of the crystal thus obtained [2]: 138 μm; sharpness index of the crystal thus obtained [2]: 4.7
"Cc1cc(N2CCN([C@@H]3CN[C@H](C(=O)N4CCSC4)C3)CC2)n(-c2ccccc2)n1 [Example 22, teneligliptin hydrobromide hydrate]",0.93±0.04,3.77,33.5,,,,
